Active and inactive are the calls of the source. No cut-off for these calls is given here.
Columns and labels:
[1] = biological target: Programmed cell death protein 1/Programmed cell death 1 ligand 1 (Homo sapiens, UniProt Q9NZQ7); experiment: Inhibition of PD-1/PD-L1 (unknown origin) interaction incubated for 15 mins by HTRF assay; type: protein-complex assay
[2] = test system: MDA-MB-231; experiment: Cytotoxicity against human MDA-MB-231 cells assessed as inhibition of cell viability incubated for 72 hrs by MTT assay; type: functional, cell-based; conditions: MDA-MB-231, 72 h
[3] = test system: NCI-H1299; experiment: Cytotoxicity against human NCI-H1299 cells assessed as inhibition of cell viability incubated for 72 hrs by MTT assay; type: functional, cell-based; conditions: NCI-H1299, 72 h
[4] = test system: HCT-116; experiment: Cytotoxicity against human HCT-116 cells assessed as inhibition of cell viability incubated for 72 hrs by MTT assay; type: functional, cell-based; conditions: HCT-116, 72 h
[5] = Cytotoxicity against human PBMC cells assessed as decrease in cell viability at 2.5 to 10 uM incubated for 48 hrs by MTT assay; type: toxicity, cell-based; conditions: dose 2.5-10 µM
[6] = test system: A549; experiment: Cytotoxicity against human A549 cells assessed as decrease in cell viability at 2.5 to 10 uM incubated for 48 hrs by MTT assay; type: functional, cell-based; conditions: dose 2.5-10 µM
[7] = test system: A549; experiment: Cytotoxicity against human A549 cells assessed as inhibition of cell viability incubated for 72 hrs by MTT assay; type: functional, cell-based; conditions: A549, 72 h
[8] = biological target: Programmed cell death 1 ligand 1 (Homo sapiens, UniProt Q9NZQ7)
Chain of Programmed cell death 1 ligand 1 (Q9NZQ7 whole entry): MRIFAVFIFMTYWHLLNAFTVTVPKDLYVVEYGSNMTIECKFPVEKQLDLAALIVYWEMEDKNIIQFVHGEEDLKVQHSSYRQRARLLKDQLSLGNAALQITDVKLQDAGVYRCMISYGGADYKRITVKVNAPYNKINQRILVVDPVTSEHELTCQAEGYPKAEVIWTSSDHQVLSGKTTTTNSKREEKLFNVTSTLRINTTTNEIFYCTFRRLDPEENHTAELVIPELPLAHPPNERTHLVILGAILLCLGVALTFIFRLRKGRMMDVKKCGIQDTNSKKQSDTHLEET
Description: Binding affinity to CM5 chip immobilized recombinant human PD-L1 assessed as association constant by SPR analysis

[9] = Metabolic stability in human liver microsomes assessed as intrinsic clearance by LC-MS/MS analysis; type: ADME, Microsome
[10] = test system: 4T1; experiment: Antitumor activity against mouse 4T1 cells allografted in BALB/c mouse at 20 mg/kg, ip treated for 21 days consecutively relative to control; type: functional; conditions: 4T1, 504 h, time 21 day, read-out: TGI
[11] = Metabolic stability in human liver microsomes assessed as half life by LC-MS/MS analysis; type: ADME, Microsome
[12] = test system: 4T1; experiment: Antitumor activity against mouse 4T1 cells allografted in BALB/c mouse assessed as increase in CD8+ cell infiltration administered intraperitoneally treated for 21 days consecutively by IHC analysis; type: functional, cell-based; conditions: dose 10-20 mg/kg, route ip, time 21.0 day
[13] = test system: 4T1; experiment: Antitumor activity against mouse 4T1 cells allografted in BALB/c mouse at 10 mg/kg, ip treated for 21 days consecutively relative to control; type: functional; conditions: 4T1, 504 h, time 21 day, read-out: TGI
[14] = test system: A549; experiment: Cytotoxicity against human A549 cells assessed as inhibition of cell viability at 10 uM preincubated with A549 cells for 2 hrs followed by co-culture with CD3/CD28/CD2-activated PBMC cells for 48 hrs by MTT assay relative to control; type: functional; conditions: time 50 hrs
[15] = Toxicity in BALB/c mouse allografted with mouse 4T1 cells assessed as drug tolerance at 10 to 20 mg/kg, ip treated for 21 days consecutively; type: organism-based; conditions: in vivo, 504 h, dose 10-20 mg/kg, time 21 day
[16] = Toxicity in BALB/c mouse allografted with mouse 4T1 cells assessed as body weight loss at 10 to 20 mg/kg, ip treated for 21 days consecutively; type: organism-based; conditions: in vivo, 504 h, dose 10-20 mg/kg, time 21 day
[17] = Toxicity in BALB/c mouse allografted with mouse 4T1 cells assessed as animal death at 10 to 20 mg/kg, ip treated for 21 days consecutively; type: organism-based; conditions: in vivo, 504 h, dose 10-20 mg/kg, time 21 day

Chain of Programmed cell death protein 1/Programmed cell death 1 ligand 1 (Q15116 whole entry): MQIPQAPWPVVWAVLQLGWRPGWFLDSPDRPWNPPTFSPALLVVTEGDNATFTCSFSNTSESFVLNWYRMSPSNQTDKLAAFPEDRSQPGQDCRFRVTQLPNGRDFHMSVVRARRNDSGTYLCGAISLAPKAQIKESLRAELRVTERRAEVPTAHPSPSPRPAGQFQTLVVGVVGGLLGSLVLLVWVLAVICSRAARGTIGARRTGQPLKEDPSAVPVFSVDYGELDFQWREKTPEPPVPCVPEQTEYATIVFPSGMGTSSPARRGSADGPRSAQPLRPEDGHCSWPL
Chain of Programmed cell death protein 1/Programmed cell death 1 ligand 1 (Q9NZQ7 whole entry): as the sequence (Q9NZQ7 whole entry) above

Structure (SMILES): Cc1c(C(=O)Oc2cc(OCc3cccc(C#N)c3)c(CNC(CO)CO)cc2Cl)cccc1-c1ccccc1
- IC50 [1]: 118 nM

Structure (SMILES): Cc1c(C(=O)Oc2ccc(CN[C@@H](CO)C(=O)O)cc2)cccc1-c1ccccc1
- IC50 [2]: > 20000 nM
- IC50 [1]: 17.5 nM
- IC50 [3]: > 20000 nM
- IC50 [4]: > 20000 nM
- Activity [5]: Non-Toxic
- Activity [6]: inactive
- IC50 [7]: > 20000 nM

Structure (SMILES): Cc1c(C(=O)Oc2ccc(CNC(CO)(CO)CO)c(OCc3cccc(C#N)c3)c2C)cccc1-c1ccccc1
- IC50 [1]: 109 nM

Structure (SMILES): COc1cc(OCc2cccc(-c3ccccc3)c2C)cc(OC)c1CN1CCCC[C@H]1C(=O)O
- Ka [8]: 1.17 10^5/M/s
- CLH [9]: 216 µL/min/mg
- Activity [5]: Non-Toxic
- Activity [6]: inactive
- inhibition in vivo at 20 mg/kg [10]: 33.1%
- t1/2 [11]: 14.2 min

Structure (SMILES): Cc1c(COc2cc(OCc3cccc(C#N)c3)c(CN3C[C@H](O)C[C@@H]3C(=O)O)cc2Cl)cccc1-c1ccc2c(c1)OCCO2
- Activity [5]: Non-Toxic
- Activity [6]: inactive

Structure (SMILES): Cc1cc(OC(=O)c2cccc(-c3ccccc3)c2C)cc(OCc2cccc(C#N)c2)c1CNC(CO)(CO)CO
- IC50 [1]: 133 nM

Structure (SMILES): COc1cc(OC(=O)c2cccc(-c3ccccc3)c2C)ccc1CNC(CO)CO
- IC50 [2]: > 20000 nM
- IC50 [1]: 27.1 nM
- IC50 [3]: 11400 nM
- IC50 [4]: 12200 nM
- IC50 [7]: 18800 nM

Structure (SMILES): COc1cc(OC(=O)c2cccc(-c3ccccc3)c2C)ccc1CN1CCC(O)CC1
- IC50 [1]: 78.6 nM

Structure (SMILES): COc1cc(OC(=O)c2cccc(-c3ccccc3)c2C)ccc1CNCCO
- IC50 [1]: 263 nM

Structure (SMILES): Cc1c(C(=O)Oc2ccc(CN[C@H](CO)C(=O)O)c(OCc3cccc(C#N)c3)c2)cccc1-c1ccccc1
- IC50 [1]: 24 nM

Structure (SMILES): Cc1cc(OC(=O)c2cccc(-c3ccccc3)c2C)ccc1CN[C@@H](CO)C(=O)O
- IC50 [2]: > 20000 nM
- Ka [8]: 5.31 10^5/M/s
- IC50 [1]: 2.25 nM
- IC50 [3]: > 20000 nM
- IC50 [4]: > 20000 nM
- Activity [5]: Non-Toxic
- Activity [6]: inactive
- IC50 [7]: > 20000 nM

Structure (SMILES): COc1cc(OC(=O)c2cccc(-c3ccccc3)c2C)ccc1CNC[C@@H](O)CO
- IC50 [1]: 302 nM

Structure (SMILES): COc1cc(OC(=O)c2cccc(-c3ccccc3)c2C)ccc1CNC(CO)(CO)CO
- IC50 [1]: 72.4 nM

Structure (SMILES): COc1cc(OC(=O)c2cccc(-c3ccccc3)c2C)ccc1CN[C@@H](CO)C(=O)O
- IC50 [2]: > 20000 nM
- IC50 [1]: 27.3 nM
- IC50 [3]: > 20000 nM
- IC50 [4]: > 20000 nM
- Activity [5]: Non-Toxic
- Activity [6]: inactive
- IC50 [7]: > 20000 nM

Structure (SMILES): Cc1c(C(=O)Oc2ccc(CNCCO)c(OCc3cccc(C#N)c3)c2)cccc1-c1ccccc1
- IC50 [2]: 7680 nM
- IC50 [1]: 13.2 nM
- IC50 [3]: 7400 nM
- IC50 [4]: 7350 nM
- Activity [5]: Non-Toxic
- Activity [6]: inactive
- IC50 [7]: 12600 nM

Structure (SMILES): Cc1c(C(=O)Oc2ccc(CNC(CO)(CO)CO)cc2)cccc1-c1ccccc1
- IC50 [1]: 25.6 nM

Structure (SMILES): COc1cc(OC(=O)c2cccc(-c3ccccc3)c2C)ccc1CN1CCCC[C@H]1C(=O)O
- IC50 [1]: > 1000 nM

Structure (SMILES): Cc1c(C(=O)Oc2ccc(CN[C@H](CO)C(=O)O)cc2)cccc1-c1ccccc1
- IC50 [1]: 55.1 nM

Structure (SMILES): Cc1c(C(=O)Oc2ccc(CNC(CO)(CO)CO)c(Br)c2)cccc1-c1ccccc1
- IC50 [2]: > 20000 nM
- Ka [8]: 1.16 10^5/M/s
- IC50 [1]: 2.62 nM
- IC50 [3]: 18700 nM
- IC50 [4]: > 20000 nM
- Activity [5]: Non-Toxic
- Activity [6]: inactive
- IC50 [7]: > 20000 nM

Structure (SMILES): COc1cc(OC(=O)c2cccc(-c3ccccc3)c2C)cc(OC)c1CNCC(O)CO (configuration not stated)
- IC50 [1]: 228 nM

Structure (SMILES): COc1cc(OC(=O)c2cccc(-c3ccccc3)c2C)ccc1CNCCN(C)C
- IC50 [1]: 358 nM

Structure (SMILES): Cc1c(C(=O)Oc2ccc(CN[C@@H](CO)C(=O)O)c(OCc3cccc(C#N)c3)c2)cccc1-c1ccccc1
- IC50 [1]: > 1000 nM

Structure (SMILES): Cc1cc(OC(=O)c2cccc(-c3ccccc3)c2C)cc(OCc2cccc(C#N)c2)c1CN[C@H](CO)C(=O)O
- IC50 [1]: 39.5 nM

Structure (SMILES): Cc1c(C(=O)Oc2ccc(CN3C[C@H](O)C[C@H]3C(=O)O)c(OCc3cccc(C#N)c3)c2)cccc1-c1ccccc1
- IC50 [2]: > 20000 nM
- Activity [12]: Dose-Dependent Effect
- Ka [8]: 7.9 10^5/M/s
- inhibition in vivo at 10 mg/kg [13]: 49.4%
- CLH [9]: 100 µL/min/mg
- IC50 [1]: 1.21 nM
- IC50 [3]: > 20000 nM
- IC50 [4]: > 20000 nM
- Activity [5]: Non-Toxic
- inhibition at 10 µM [14]: 76.5%
- Activity [6]: inactive
- IC50 [7]: > 20000 nM
- inhibition in vivo at 20 mg/kg [10]: 67.8%
- t1/2 [11]: 18.8 min
- Activity [15]: Non-Toxic
- Activity [16]: Non-Toxic
- Activity [17]: Non-Toxic

Structure (SMILES): Cc1cc(OC(=O)c2cccc(-c3ccccc3)c2C)ccc1CNC(CO)(CO)CO
- IC50 [2]: 18300 nM
- Ka [8]: 4.37 10^5/M/s
- IC50 [1]: 1.98 nM
- IC50 [3]: 16500 nM
- IC50 [4]: 12200 nM
- IC50 [7]: 18600 nM

Structure (SMILES): Cc1cc(OC(=O)c2cccc(-c3ccccc3)c2C)cc(OCc2cccc(C#N)c2)c1CN[C@@H](CO)C(=O)O
- IC50 [1]: 64.3 nM

Structure (SMILES): Cc1cc(OC(=O)c2cccc(-c3ccccc3)c2C)cc(OCc2cccc(C#N)c2)c1CNCCO
- IC50 [1]: 271 nM

Structure (SMILES): COc1cc(OC(=O)c2cccc(-c3ccccc3)c2C)ccc1CNCCNC(C)=O
- IC50 [1]: 893 nM

Structure (SMILES): COc1cc(OC(=O)c2cccc(-c3ccccc3)c2C)ccc1CNC[C@H](O)CO
- IC50 [1]: 381 nM

Structure (SMILES): COc1cc(OC(=O)c2cccc(-c3ccccc3)c2C)ccc1CN1C[C@H](O)C[C@H]1C(=O)O
- IC50 [1]: 113 nM

Structure (SMILES): CC(=O)NCCNCc1ccc(OC(=O)c2cccc(-c3ccccc3)c2C)cc1OCc1cccc(C#N)c1
- IC50 [1]: 506 nM

Structure (SMILES): Cc1cc(OC(=O)c2cccc(-c3ccccc3)c2C)cc(OCc2cccc(C#N)c2)c1CNC[C@H](O)CO
- IC50 [1]: 254 nM

Structure (SMILES): COc1cc(OC(=O)c2cccc(-c3ccccc3)c2C)ccc1CNCCCO
- IC50 [1]: > 1000 nM

Structure (SMILES): Cc1c(C(=O)Oc2ccc(CN[C@@H](CO)C(=O)O)c(OCc3cccc(C#N)c3)c2C)cccc1-c1ccccc1
- IC50 [1]: 231 nM

Source: ChEMBL document CHEMBL5500367, “Improving tumor sensitivity by the introduction of an ester chain to triaryl derivatives targeting PD-1/PD-L1” (Eur J Med Chem, 2024)
